# According to patent EP4603105A1, “PHARMACEUTICAL COMPOSITION CONTAINING CYCLIC COMPOUND HAVING SELECTIVE KRAS INHIBITORY EFFECT AGAINST HRAS AND NRAS” (CHUGAI SEIYAKU KABUSHIKI KAISHA, priority 2022, dated 2024):
# Where a SMILES comes first, the peptide text is derived from it. Bridges are numbered along the chain shown (N, C = ends). [ ]: non-standard residue; d: D form. The star is where a group is joined. hPhe(3,5-F2-4-CF3) = N[C@@H](CCc1cc(F)c(C(F)(F)F)c(F)c1)C(=O)O; hPhe(3-Cl-4-CF3) = N[C@@H](CCc1ccc(C(F)(F)F)c(Cl)c1)C(=O)O; NPrPhe(4-CF3) = CCCN[C@@H](Cc1ccc(C(F)(F)F)cc1)C(=O)O; NMeGly(cPent) = CN[C@H](C(=O)O)C1CCCC1; Nva(3-Et) = CCC(CC)[C@H](N)C(=O)O; αMeI = CC[C@H](C)[C@](C)(N)C(=O)O; Hyp = O=C(O)[C@@H]1C[C@@H](O)CN1; NMeD = CN[C@@H](CC(=O)O)C(=O)O; NMeL = CN[C@@H](CC(C)C)C(=O)O; Morpholide = C1CN(*)CCO1; NMeA = CN[C@@H](C)C(=O)O; Ac5c = NC1(C(=O)O)CCCC1; Aze = O=C(O)[C@@H]1CCN1; Ac4c = NC1(C(=O)O)CCC1; Sar = CNCC(=O)O
# Assays:
# [1] = target: GDP-bound NRAS wild-type protein (Homo sapiens, UniProt P01111); assay: Binding to NRAS by surface plasmon resonance (SPR), KD and KD ratio to KRAS
# Sequence of GDP-bound NRAS wild-type protein (P01111 whole entry): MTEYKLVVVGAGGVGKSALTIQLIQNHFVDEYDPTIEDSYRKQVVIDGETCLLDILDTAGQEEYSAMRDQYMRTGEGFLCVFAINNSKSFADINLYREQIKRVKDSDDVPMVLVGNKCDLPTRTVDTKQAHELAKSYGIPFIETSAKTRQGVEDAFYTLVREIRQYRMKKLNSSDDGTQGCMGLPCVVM
# Method in brief: (§1)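 Affinity is measured by surface plasmon resonance at 30°C against captured, GDP-loaded RAS carrying a biotinylated Avi tag. Compounds are titrated by single-cycle kinetics, and KD comes from a 1:1 fit.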
# HRAS wild-type protein = HRAS wild-type protein (Homo sapiens, UniProt P01112); assay: Binding to HRAS by surface plasmon resonance (SPR), KD and KD ratio to KRAS
# Sequence of HRAS wild-type protein (P01112 whole entry): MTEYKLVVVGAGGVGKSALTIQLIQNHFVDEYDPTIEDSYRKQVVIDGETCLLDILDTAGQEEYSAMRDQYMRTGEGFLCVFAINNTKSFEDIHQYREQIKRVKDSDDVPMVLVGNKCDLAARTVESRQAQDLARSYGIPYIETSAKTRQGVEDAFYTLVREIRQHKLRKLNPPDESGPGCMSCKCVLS
# Method in brief: as §1
# [2] = test system: human lung cancer strain NCI-H441; assay type: cell-based
# Method in brief: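 Readout: […] after the ATP-based reagent. Compound: serial dilutions in dimethyl sulfoxide.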
# [3] = ratio of KD value for GDP-bound NRAS wild-type protein to KD value for KRAS (SPR)
# [4] = ratio of KD value for HRAS wild-type protein to KD value for KRAS (SPR)
# [5] = ratio of KD for GDP-bound NRAS wild-type protein to KD for KRAS
# [6] = ratio of KD for HRAS wild-type protein to KD for KRAS
# [7] = ratio of the KD value with respect to GDP-bound NRAS wild-type protein to the KD value with respect to KRAS
# [8] = ratio of the KD value with respect to HRAS wild-type protein to the KD value with respect to KRAS
SMILES,IC50 [2],"NRAS /KRAS [1, 5]",HRAS /KRAS (HRAS wild-type protein; [6]),also measured
CCCOC[C@H]1C(=O)N[C@@H]([C@@H](C)CC)C(=O)N(C)CC(=O)N(C)[C@H]2C/C=C\CCN(C2=O)[C@@H](Cc2ccc(C(F)(F)F)cc2)C(=O)N(C)CC(=O)N[C@@H](CCc2cc(F)c(Cl)c(F)c2)C(=O)N2C[C@H](OCC)C[C@H]2C(=O)NC2(CC(C)(C)C2)C(=O)N(C)[C@@H](C2CCCC2)C(=O)N(C)[C@H](C(=O)N(C)C)CC(=O)N1C [PP1764],11.1 nM,,,"NRAS /KRAS [1, 3]: AA (a compound having 20 or more is denoted as AA); HRAS /KRAS (HRAS wild-type protein; [4]): A (a compound having 10 or more and less than 20 is denoted as A)"
CCCN1C(=O)[C@@H]2CCN2C(=O)[C@H](C)N(C)C(=O)[C@H]([C@@H](C)CC)NC(=O)[C@H](CC(C)C)N(C)C(=O)C[C@@H](C(=O)N2CCOCC2)NC(=O)[C@H](C2CCCC2)N(C)C(=O)C2(CCCC2)NC(=O)[C@@H]2CCCN2C(=O)[C@H](CCc2ccc(C(F)(F)F)c(Cl)c2)NC(=O)CN(C)C(=O)[C@@H]1Cc1ccc(C(F)(F)F)cc1 [PP0343] ([NMeL]I[NMeA][Aze][NPrPhe(4-CF3)][Sar][hPhe(3-Cl-4-CF3)]P[Ac5c][NMeGly(cPent)]D-Morpholide; lactam N-11),47.6 nM,C (A compound having a KD ratio of 0.1 or more and less than 3 is denoted as C),B (a compound having 3 or more and less than 10 is denoted as B),
CCCN1C(=O)CN(C)C(=O)CNC(=O)[C@H]([C@@H](C)CC)NC(=O)[C@H](CC(C)C)N(C)C(=O)C[C@@H](C(=O)N2CCOCC2)NC(=O)[C@H](C2CCCC2)N(C)C(=O)C2(CCC2)NC(=O)[C@@H]2C[C@@H](OCC)CN2C(=O)[C@H](CCc2ccc(C(F)(F)F)c(Cl)c2)NC(=O)CN(C)C(=O)[C@@H]1Cc1ccc(C(F)(F)F)cc1 [PP0330] ([NMeL]IG[Sar][NPrPhe(4-CF3)][Sar][hPhe(3-Cl-4-CF3)][Hyp](Et)[Ac4c][NMeGly(cPent)]D-Morpholide; lactam N-11),98.2 nM,B (a compound having 3 or more and less than 10 is denoted as B),C (A compound having a KD ratio of 0.1 or more and less than 3 is denoted as C),
"CCCN1C(=O)[C@@H]2CCN2C(=O)CN(C)C(=O)[C@H](C(CC)CC)NC(=O)[C@H](CC(C)C)N(C)C(=O)C[C@@H](C(=O)N2CCOCC2)N(C)C(=O)[C@H](C2CCCC2)N(C)C(=O)C2(CCCC2)NC(=O)[C@@H]2CCCN2C(=O)[C@H](CCc2cc(F)c(C(F)(F)F)c(F)c2)NC(=O)CN(C)C(=O)[C@@H]1Cc1ccc(C(F)(F)F)cc1 [PP0804] ([NMeL][Nva(3-Et)][Sar][Aze][NPrPhe(4-CF3)][Sar][hPhe(3,5-F2-4-CF3)]P[Ac5c][NMeGly(cPent)][NMeD]-Morpholide; lactam N-11)",40.9 nM,C (A compound having a KD ratio of 0.1 or more and less than 3 is denoted as C),B (a compound having 3 or more and less than 10 is denoted as B),
"CCCN1C(=O)CN(C)C(=O)[C@@H]2CCN2C(=O)[C@H]([C@@H](C)CC)NC(=O)[C@H](CC(C)C)N(C)C(=O)C[C@@H](C(=O)N2CCOCC2)N(C)C(=O)[C@H](C2CCCC2)N(C)C(=O)[C@](C)([C@@H](C)CC)NC(=O)[C@@H]2CCCN2C(=O)[C@H](CCc2cc(F)c(C(F)(F)F)c(F)c2)NC(=O)CN(C)C(=O)[C@@H]1Cc1ccc(C(F)(F)F)cc1 [PP0774] ([NMeL]I[Aze][Sar][NPrPhe(4-CF3)][Sar][hPhe(3,5-F2-4-CF3)]P[αMeI][NMeGly(cPent)][NMeD]-Morpholide; lactam N-11)",478 nM,B (a compound having 3 or more and less than 10 is denoted as B),B (a compound having 3 or more and less than 10 is denoted as B),
CCC[C@H]1C(=O)N[C@@H]([C@@H](C)CC)C(=O)N(C)CC(=O)N(C)[C@H]2C/C=C\CCN(C2=O)[C@@H](Cc2ccc(C(F)(F)F)cc2)C(=O)N(C)CC(=O)N[C@@H](CCc2cc(F)c(C(F)(F)F)c(F)c2)C(=O)N2C[C@H](OCC)C[C@H]2C(=O)NC2(CCC2)C(=O)N(C)[C@@H](C2CCCC2)C(=O)N(C)[C@H](C(=O)N(CC)CC)CC(=O)N1C [PP1310],4.5 nM,,,NRAS /KRAS ([1]; ratio of KD with respect to GDP-bound NRAS wild-type protein to KD with respect to KRAS): AA (a compound having 20 or more is denoted as AA); HRAS /KRAS (HRAS wild-type protein; ratio of KD with respect to HRAS wild-type protein to KD with respect to KRAS): A (a compound having 10 or more and less than 20 is denoted as A)
CCO[C@@H]1C[C@H]2C(=O)N[C@@]3(C)CCCCCCC[C@@H](C(=O)N[C@@H]([C@@H](C)CC)C(=O)N(C)CC(=O)N(C)[C@H]4CCCCN(C4=O)[C@@H](Cc4ccc(C(F)(F)F)cc4)C(=O)N(C)CC(=O)N[C@@H](CCc4cc(F)c(C(F)(F)F)c(F)c4)C(=O)N2C1)N(C)C(=O)C[C@@H](C(=O)N1CCOCC1)N(C)C(=O)[C@H](C1CCCC1)N(C)C3=O [PP0993],332 nM,B (a compound having 3 or more and less than 10 is denoted as B),B (a compound having 3 or more and less than 10 is denoted as B),
CCO[C@@H]1C[C@H]2C(=O)N[C@]3(C)CCCCCC[C@@H](C(=O)N[C@@H]([C@@H](C)CC)C(=O)N(C)CC(=O)N(C)[C@H]4CCCCN(C4=O)[C@@H](Cc4ccc(C(F)(F)F)cc4)C(=O)N(C)CC(=O)N[C@@H](CCc4cc(F)c(C(F)(F)F)c(F)c4)C(=O)N2C1)N(C)C(=O)C[C@@H](C(=O)N1CCOCC1)N(C)C(=O)[C@H](C1CCCC1)N(C)C3=O [PP0992],790 nM,B (a compound having 3 or more and less than 10 is denoted as B),B (a compound having 3 or more and less than 10 is denoted as B),
CCO[C@@H]1C[C@H]2C(=O)NC3(CCCC3)C(=O)N(C)[C@@H](C3CCCC3)C(=O)N(C)[C@H](C)CC(=O)N(C)[C@@H](CC(C)C)C(=O)N[C@@H]([C@@H](C)CC)C(=O)N(C)CC(=O)N(C)[C@H]3C/C=C\CCN(C3=O)[C@@H](Cc3ccc(C(F)(F)F)cc3)C(=O)N(C)CC(=O)N[C@@H](CCc3cc(F)c(C(F)(F)F)c(F)c3)C(=O)N2C1 [PP1096],38.1 nM,B (a compound having 3 or more and less than 10 is denoted as B),B (a compound having 3 or more and less than 10 is denoted as B),
CCO[C@@H]1C[C@H]2C(=O)NC3(CC(C)(C)C3)C(=O)N(C)[C@@H](C3CCCC3)C(=O)N(C)[C@H](C(=O)N(C)CC)CC(=O)N(C)[C@@H](CC(C)C)C(=O)N[C@@H]([C@@H](C)CC)C(=O)N(C)CC(=O)N(C)[C@H]3C/C=C\CCN(C3=O)[C@@H](Cc3ccc(C(F)F)cc3)C(=O)N(C)CC(=O)N[C@@H](CCc3cc(F)c(C(F)(F)F)c(F)c3)C(=O)N2C1 [PP2046],2.2 nM,,,"NRAS /KRAS [1, 7]: A (a compound having 10 or more and less than 20 is denoted as A); HRAS /KRAS (HRAS wild-type protein; [8]): A (a compound having 10 or more and less than 20 is denoted as A)"
CCO[C@@H]1C[C@H]2C(=O)NC3(CC(C)(C)C3)C(=O)N(C)[C@@H](C3CCCC3)C(=O)N(C)[C@H](C(=O)N3CCCC3)CC(=O)N(C)[C@H]3CCC/C=C/c4ccc(cc4)C[C@@H](C(=O)N(C)CC(=O)N[C@@H](CCc4cc(F)c(C(F)(F)F)c(F)c4)C(=O)N2C1)N1CC/C=C\C[C@@H](C1=O)N(C)C(=O)CN(C)C(=O)[C@H]([C@@H](C)CC)NC3=O [PP2574],4.2 nM,A (a compound having 10 or more and less than 20 is denoted as A),A (a compound having 10 or more and less than 20 is denoted as A),
CCO[C@@H]1C[C@H]2C(=O)NC3(CC(C)(C)C3)C(=O)N(C)[C@@H](C3CCCC3)C(=O)N(C)[C@H](C(=O)N3CCCC3)CC(=O)N(C)[C@@H](CC)C(=O)N[C@@H]([C@@H](C)CC)C(=O)N(C)CC(=O)N(C)[C@H]3C/C=C\CCN(C3=O)[C@@H](Cc3ccc(C(F)(F)F)cc3)C(=O)N(C)CC(=O)N[C@@H](CCc3cc(F)c(C(F)(F)F)c(F)c3)C(=O)N2C1 [PP1944],14.8 nM,,,"NRAS /KRAS [1, 7]: A (a compound having 10 or more and less than 20 is denoted as A); HRAS /KRAS (HRAS wild-type protein; [8]): A (a compound having 10 or more and less than 20 is denoted as A)"
CCO[C@@H]1C[C@H]2C(=O)NC3(CCC3)C(=O)N(C)[C@@H](C3CCCC3)C(=O)N(C)[C@H](C(=O)N(C)C)CC(=O)N(C)[C@@H](CC3CCCC3)C(=O)N[C@@H]([C@@H](C)CC)C(=O)N(C)CC(=O)N(C)[C@H]3C/C=C\CCN(C3=O)[C@@H](Cc3ccc(F)cc3)C(=O)N(C)CC(=O)N[C@@H](CCc3cc(F)c(C(F)(F)F)c(F)c3)C(=O)N2C1 [PP1531],13.9 nM,,,"NRAS /KRAS [1, 3]: A (a compound having 10 or more and less than 20 is denoted as A); HRAS /KRAS (HRAS wild-type protein; [4]): B (a compound having 3 or more and less than 10 is denoted as B)"
CCCN1C(=O)CN(C)C(=O)CN(C)C(=O)[C@H]([C@@H](C)CC)NC(=O)[C@@H]2CCCCOc3ccc(cc3)C[C@H]1C(=O)N(C)CC(=O)N[C@@H](CCc1cc(F)c(C(F)(F)F)c(F)c1)C(=O)N1C[C@H](OCC)C[C@H]1C(=O)NC1(CCCC1)C(=O)N(C)[C@@H](C1CCCC1)C(=O)N(C)[C@H](C(=O)N(C)C)CC(=O)N2C [PP0894],3.7 nM,C (A compound having a KD ratio of 0.1 or more and less than 3 is denoted as C),C (A compound having a KD ratio of 0.1 or more and less than 3 is denoted as C),
CCO[C@@H]1C[C@H]2C(=O)NC3(CC(C)(C)C3)C(=O)N(C)[C@@H](C(CC)CC)C(=O)N(C)[C@H](C(=O)N(C)C)CC(=O)N(C)[C@@H](C(C)C)C(=O)N[C@@H]([C@@H](C)CC)C(=O)N(C)CC(=O)N(C)[C@H]3C/C=C\CCN(C3=O)[C@@H](Cc3ccc(C(F)(F)F)cc3)C(=O)N(C)CC(=O)N[C@@H](CCc3ccc(Cl)c(Cl)c3)C(=O)N2C1 [PP2181],40.3 nM,,,"NRAS /KRAS [1, 7]: AA (a compound having 20 or more is denoted as AA); HRAS /KRAS (HRAS wild-type protein; [8]): A (a compound having 10 or more and less than 20 is denoted as A)"
